Data: patent publication US6908947B2, “Sulfonamide-substituted fused 7-membered ring compounds, their use as a medicament, and pharmaceutical preparations comprising them” (Aventis Pharma Deutschland GmbH, priority 1997, dated 2005)

Compound	melting point [°C]
O=S(=O)(N[C@@H]1c2ccccc2CCC[C@H]1O)c1ccc(Cl)cc1 (relative stereo) [Example 19, trans-5-[N-(4-Chlorophenyl)-sulfonylamino]-6,7,8,9-tetrahydro-5H-benzocyclohepten-6-ol]	172 to 173
COc1ccc(S(=O)(=O)N[C@@H]2c3ccccc3CCC[C@H]2O)cc1 (relative stereo) [Example 18, trans-5-[N-(4-Methoxyphenyl)-sulfonylamino]-6,7,8,9-tetrahydro-5H-benzocyclohepten-6-ol]	140 to 141
O=S(=O)(N[C@@H]1c2ccccc2CCC[C@H]1O)c1ccccc1 (relative stereo) [Example 16, trans-5-(N-Phenylsulfonylamino)-6,7,8,9-tetrahydro-5H-benzocyclohepten-6-ol]	128 to 128.2
CN(C1CCCOc2ccccc21)S(C)(=O)=O (stereo not drawn) [Example 8, 5-(N-Methyl-N-methylsulfonylamino)-2,3,4,5-tetrahydro-1-benzoxepine]	143 to 145
Cc1ccc(S(=O)(=O)N[C@@H]2c3ccccc3CCC[C@H]2O)cc1 (relative stereo) [Example 17, trans-5-[N-(4-Methylphenyl)-sulfonylamino]-6,7,8,9-tetrahydro-5H-benzocyclo hepten-6-ol]	124.5 to 125.1
CCc1ccc(S(=O)(=O)N[C@@H]2c3cc([N+](=O)[O-])ccc3CCC[C@H]2O)cc1 (relative stereo) [Example 20, trans-5-[N-(4-Ethylphenyl)-sulfonylamino]-3-nitro-6,7,8,9-tetrahydro-5H-benzocyclohepten-6-ol]	159 to 161
